Biological target: T1, IRAK3 (Homo sapiens, UniProt Q9Y616)
T1 construct: endogenous in cells; host or cells: THP-1
T1 sequence (Q9Y616 1-596): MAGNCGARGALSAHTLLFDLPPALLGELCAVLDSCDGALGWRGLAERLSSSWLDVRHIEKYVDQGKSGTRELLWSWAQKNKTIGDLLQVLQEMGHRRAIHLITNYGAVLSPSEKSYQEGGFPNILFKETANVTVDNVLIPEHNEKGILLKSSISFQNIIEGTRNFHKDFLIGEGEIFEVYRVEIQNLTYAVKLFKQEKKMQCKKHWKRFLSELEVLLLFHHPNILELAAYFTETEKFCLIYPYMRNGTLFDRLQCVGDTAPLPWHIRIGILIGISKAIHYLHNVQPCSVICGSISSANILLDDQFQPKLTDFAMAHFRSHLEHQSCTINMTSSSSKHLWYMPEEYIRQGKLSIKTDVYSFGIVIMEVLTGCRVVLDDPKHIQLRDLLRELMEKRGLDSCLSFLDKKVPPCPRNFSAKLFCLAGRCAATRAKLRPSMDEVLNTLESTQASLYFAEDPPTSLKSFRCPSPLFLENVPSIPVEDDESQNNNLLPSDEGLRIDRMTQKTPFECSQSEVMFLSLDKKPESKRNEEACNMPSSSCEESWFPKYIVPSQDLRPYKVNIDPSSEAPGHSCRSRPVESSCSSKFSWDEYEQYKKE
Test: Expression proteomics in THP-1 cells: IRAK3 protein level
Format: cell-based
Settings: IRAK3, THP-1 cells
Description: THP-1 cells were seeded at a concentration of 3×10^6 cells in T175 flasks with 60 mL growth medium (RPMI1640+10% FBS). […] of a 10× compound solution prepared in growth medium (DMSO), CEREBLON_PROTAC) was added and the cells were treated for the indicated time points (6 or 24 h) at 37° C., 5% CO2. For harvesting the cells were collected into falcon tubes on ice, centrifuged and washed twice in cold PBS (Life technologies). After the last washing step the supernatant was removed and the pellets were snap-frozen in liquid N2 and stored at −80° C. and lysed in 2% SDS for 3 min at 95° C. in a thermomixer (Thermo Fisher Scientific), followed by digestion of DNA with Benzonase at 37° C. for 1.5 h. Lysate was cleared by centrifugation an protein concentration in supernatant was determined by BCA assay.
Leukemia 25, 89-100 (2011).
Samples were dried in vacuo and resuspended in 0.05% trifluoroacetic acid in water. Of the sample, 50% was injected into an Ultimate3000 nanoRLSC (Dionex, Sunnyvale, Calif.) coupled to a Q Exactive HF (Thermo Fisher Scientific). Peptides were trapped on a 5 mm×300 μm C18 column (Pepmap100, 5 μm, 300 Å, Thermo Fisher Scientific) in water with 0.05% TFA at 60° C. Separation was performed on custom 50 cm×[…] (ID) reversed-phase columns (Reprosil) at 55° C. Gradient elution was performed from 2% acetonitrile to 40% acetonitrile in 0.1% formic acid and 3.5% DMSO over 2 hours. Samples were online injected into Q-Exactive HF mass spectrometers operating with a data-dependent top 10 method. MS spectra were acquired by using 60.000 resolution and an ion target of 3×10^6. Higher energy collisional dissociation (HCD) scans were performed with 35% NCE at 30.000 resolution (at m/z 200), and the ion target settings was set to 2×10^5 so as to avoid coalescence (Werner, T. et al. Ion Coalescence of Neutron Encoded TMT 10-Plex Reporter Ions. Anal. Chem. 86, 3594-3601 (2014).
The first search was performed with 30 parts per million mass tolerance for peptide precursors and 30 mD (HCD) mass tolerance for fragment ions followed by a final search using recalibrated data with a 10 parts per million mass tolerance for peptide precursors and 20 mD (HCD) mass tolerance for fragment ions. Carbamidomethylation of cysteine residues and TMT modification of lysine residues were set as fixed modifications and methionine oxidation, and N-terminal acetylation of proteins and TMT modification of peptide N-termini were set as variable modifications. […]
Nat Biotech 29, 255-265 (2011). this measure is referred to as ion area Savitski, M. M. et al. Delayed Fragmentation and Optimized Isolation Width Settings for Improvement of Protein Identification and Accuracy of Isobaric Mass Tag Quantification on Orbitrap-Type Mass Spectrometers. […]

Compound: CNC(=O)c1ccccc1Nc1nc(Nc2ccc(N3CCN(CCOCCOCCOCCOCC(=O)Nc4cccc5c4CN(C4CCC(=O)NC4=O)C5=O)CC3)cc2)ncc1Cl.O=CO (stereo not shown) [CEREBLON_PROTAC, 14-(4-(4-((5-Chloro-4-((2-(methylcarbamoyl)phenyl)amino)pyrimidin-2-yl)amino)phenyl)piperazin-1-yl)-N-(2-(2,6-dioxopiperidin-3-yl)-1-oxoisoindolin-4-yl)-3,6,9,12-tetraoxatetradecan-1-amide formate]
- log2 rel. fc. to vehicle control (24 h 0.1 μM, n = 1): −2.25
- log2 rel. fc. to vehicle control (24 h 0.1 μM, n = 2): −1.82
- log2 rel. fc. to vehicle control (24 h 1 μM, n = 1): −1.65
- log2 rel. fc. to vehicle control (24 h 1 μM, n = 2): −1.86
